# Measured values from patent US9210936B2, “Biocidal compositions and methods of use” (Dow Global Technologies LLC, priority 2011, dated 2015).
# Assays:
# Type in all cases: cell-based
# [1] = tested on: Desulfovibrio longus ATCC 51456; experiment: Biocidal efficacy (MBC, minimum tested biocide concentration for complete bacterial kill) against anaerobic bacteria in salt solution; conditions: 35° C., 2 hours, 10^6 to 10^7 CFU/mL; for Concentration (ppm active) for anaerobic bacteria kill, DTEA: DTEA part of the MBC for complete bacterial kill; for Concentration (ppm active) for anaerobic bacteria kill, THPS: THPS part of the MBC for complete bacterial kill
# Procedure: The synergy indexes reported in the following examples are calculated using the following equation: Synergy Index=Ca/CA+Cb/CB
# Ca: Concentration of biocide A required to achieve a certain level of bacterial kill when used in combination with B
# CA: Concentration of biocide A required to achieve a certain level of bacterial kill when used alone
# Cb: Concentration of biocide B required to achieve a certain level of bacterial kill when used in combination with A
# CB: Concentration of biocide B required to achieve a certain level of bacterial kill when used alone.
# A synergy index (SI) of 1 indicates additivity, a synergy index of less than 1 indicates synergy, and a synergy index greater than 1 indicates antagonism.
# Inside an anaerobic chamber (Bactron anaerobic chamber), a deoxygenated sterile salt solution (3.1183 g of NaCl, 1.3082 mg of NaHCO3, 47.70 mg of KCl, 72.00 mg of CaCl2, 54.49 mg of MgSO4, 172.28 mg of Na2SO4, 43.92 mg of Na2CO3 in 1 L water) is inoculated with Desulfovibrio longus ATCC 51456 to a final bacterial concentration of 10^6 to 10^7 CFU/mL. […] After the treated cell suspensions are incubated at 35° C. for 2 hours, the biocidal efficacy is determined by minimum tested biocide concentration for complete bacterial kill in the aliquots (MBC).
# [2] = tested on: Biofilms of Desulfovibrio longus ATCC 51456; experiment: Biofilm removal, remaining biofilm by crystal violet staining; conditions: 2 hours treatment, optical density of biofilm captured crystal violet at 580 nm
# Procedure: (§1) Modified Baar's Medium (ATCC #1249 Broth) is used as culture medium and the medium is changed after 48 hrs of incubation.
# The biofilm is fixed with 99% methanol and, after air drying, the pegs are stained with 2% (w/v) crystal violet and washed with tap water. The pegs are then air dried and the crystal violet bound to the biofilm is extracted with 33% glacial acetic acid. The total remaining biofilm is determined by the optical density (OD) of the extracted solution at 580 nm.
# [3] = tested on: Biofilms of Desulfovibrio longus ATCC 51456 (sessile bacteria); experiment: Sessile bacteria kill in biofilms grown in Calgary Biofilm Device; conditions: 72 hours biofilm, 2 hours treatment, anaerobic
# Procedure: as §1
Compound,"Concentration (ppm active) for anaerobic bacteria kill, DTEA [1] [ppm active]","Concentration (ppm active) for anaerobic bacteria kill, THPS [1] [ppm active]","Remaining biofilm, OD580 ([2]; 50 ppm active)","Remaining biofilm, OD580 ([2]; 100 ppm active)",Concentration (ppm active) for 3 log10 bacterial reduction [3] [ppm active]
"CCCCCCCCCCSCCN [DTEA, 2-(decylthio)ethanamine]",20.00,0.00,,,
tetrakis(hydroxymethyl)phosphonium sulfate [THPS],0.00,19.75,0.57,0.68,50
